For 22 compounds, IC50 results are on record in patent US20110098352A1, “N,N-DISUBSTITUTED AMINOALKYLBIPHENYL ANTAGONISTS OF PROSTAGLANDIN D2 RECEPTORS” (AMIRA PHARMACEUTICALS, INC., priority 2008, published 2011).

The target of one assay is T1, human DP1 receptor (Homo sapiens, UniProt Q13258).
T1 construct: tissue Biological Specialty Corporation; host or cells: human platelets, membranes
T1 sequence (Q13258 1-359): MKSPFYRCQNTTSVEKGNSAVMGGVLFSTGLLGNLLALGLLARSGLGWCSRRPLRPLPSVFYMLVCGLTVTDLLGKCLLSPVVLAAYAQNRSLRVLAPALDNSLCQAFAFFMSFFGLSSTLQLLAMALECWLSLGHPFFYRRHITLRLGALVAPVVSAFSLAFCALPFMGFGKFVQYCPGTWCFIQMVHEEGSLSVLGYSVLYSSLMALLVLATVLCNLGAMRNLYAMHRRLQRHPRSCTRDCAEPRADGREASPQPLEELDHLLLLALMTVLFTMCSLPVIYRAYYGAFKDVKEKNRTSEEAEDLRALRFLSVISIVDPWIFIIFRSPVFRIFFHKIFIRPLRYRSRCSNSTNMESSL
In words: DP1 radioligand membrane binding assay using [3H]BWA868C. Particulars: [3H]BWA868C binding, human platelet membranes; read-out: hDP1. The procedure:
The ability of a compound to bind to the human DP1 receptor was evaluated via a radioligand membrane binding assay using the DP1 selective synthetic ligand [^3H]BWA868C. Packed human platelets (Biological Specialty Corporation), were resuspended in 6 volumes of Hepes/HBSS buffer (10 mM Hepes, 1 mM DTT in Hanks Balanced Salt Solution (HBSS)), lysed and centrifuged at 75,000×g to pellet the membranes. Membranes were resuspended in Hepes/HBSS buffer to approximately 12 mg protein/ml. Membranes (20 μg protein/well) are incubated in 96-well plates with 2 nM [^3H]BWA868C and test compound in Assay Buffer (50 mM Hepes, 10 mM MnCl2, 1 mM EDTA, plus or minus 0.2% human serum albumin, pH 7.4) for 60 minutes at room temperature. The reactions are terminated by rapid filtration through Whatman GF/C glass fibre filter plates. The filter plates were pre-soaked in […] polethylenimine for 30 minutes at room temperature then washed in Wash Buffer (50 mM Hepes, 0.5 M NaCl pH 7.4) prior to harvesting. After harvesting, the filter plates are washed 3 times with 1 ml cold Wash Buffer then dried. Scintillant is then added to the plates and the radioactivity retained on the filters is determined on a Packard TopCount (Perkin Elmer). Specific binding is determined as total radioactive binding minus non-specific binding in the presence of 10 μM BWA868C. IC50s were determined using GraphPad prism analysis of drug titration curves.

The next assay concerns the target T2, human DP2 receptor (Homo sapiens, UniProt Q9Y5Y4).
T2 construct: expressed in transfected cells
T2 sequence (Q9Y5Y4 1-395): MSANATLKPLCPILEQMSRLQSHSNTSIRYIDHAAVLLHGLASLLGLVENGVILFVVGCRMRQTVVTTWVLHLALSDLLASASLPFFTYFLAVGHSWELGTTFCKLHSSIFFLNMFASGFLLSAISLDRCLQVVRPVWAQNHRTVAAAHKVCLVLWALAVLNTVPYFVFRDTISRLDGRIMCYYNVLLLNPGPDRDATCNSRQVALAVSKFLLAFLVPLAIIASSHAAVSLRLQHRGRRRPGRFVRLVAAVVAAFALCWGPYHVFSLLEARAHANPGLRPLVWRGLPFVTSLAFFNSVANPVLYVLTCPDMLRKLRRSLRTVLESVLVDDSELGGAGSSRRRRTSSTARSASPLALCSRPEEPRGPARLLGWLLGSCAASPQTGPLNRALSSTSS
In words: DP2/CRTH2 radioligand binding assay using [3H]PGD2. The procedure: The ability of a compound to bind to the human DP2 receptor is assessed via a radioligand binding assay using [^3H]PGD2. HEK293 cells stably expressing recombinant human DP2 are resuspended in 10 mM Hepes, 7.4 containing 1 mM DTT, lysed and centrifuged at 75,000×g to pellet the membranes. The membranes are resuspended in 10 mM Hepes, 7.4 containing 1 mM DTT and 10% glycerol to approximately 5 mg protein/ml. Membranes (2-10 μg protein/well) are incubated in 96-well plates with 1 nM [^3H]PGD2 and test compound in Assay Buffer (50 mM Hepes, 10 mM MnCl2, 1 mM EDTA, plus or minus 0.2% human serum albumin, pH 7.4) for 60 minutes at room temperature. The reactions are terminated by rapid filtration through Whatman GF/C glass fibre filter plates. The filter plates were pre-soaked in 0.33% polythylenimine for 30 minutes at room temperature then washed in Wash Buffer (50 mM Hepes, 0.5 M NaCl pH 7.4) prior to harvesting. After harvesting, the filter plates are washed 3 times with 1 ml cold Wash Buffer then dried. Scintillant is then added to the plates and the radioactivity retained on the filters is determined on a Packard TopCount (Perkin Elmer). Specific binding is determined as total radioactive binding minus non-specific binding in the presence of 10 μM PGD2. IC50s were determined using GraphPad prism analysis of drug titration curves.

Where [1] appears, read: [3H]PGD2 binding, membranes of HEK293 cells expressing recombinant human DP2, read-out: hDP2.

Read-outs that look alike come from different tables or passages of the source.

For `CCN(Cc1cc(C(F)(F)F)ccc1-c1cccc(CC(=O)O)c1)C(=O)OCc1ccccc1` [Compound 1-143, {2′-[(Benzyloxycarbonyl-ethyl-amino)-methyl]-4′-trifluoromethyl-biphenyl-3-yl}-acetic acid], the figures for the IC50 on human DP1 receptor and on human DP2 receptor (setting [1]) were 300 to 1000 nM and below 300 nM, respectively. Turning to `CCN(Cc1cc(S(C)(=O)=O)ccc1-c1cc(CC(=O)O)ccc1OC)C(=O)OCc1ccccc1` [Compound 1-215, {2′-[(Benzyloxycarbonyl-ethyl-amino)-methyl]-4′-methanesulfonyl-6-methoxy-biphenyl-3-yl}-acetic acid], the IC50 on human DP2 receptor (setting [1]) was below 300 nM. Regarding `CCN(Cc1cc(C(F)(F)F)ccc1-c1cc(CC(=O)O)ccc1OC)C(=O)C1CC1` [Compound 1-33, {2′-[(Cyclopropanecarbonyl-ethyl-amino)-methyl]-6-methoxy-4′-trifluoromethyl-biphenyl-3-yl}-acetic acid], the IC50 on human DP1 receptor is above 1000 nM; at human DP2 receptor, below 300 nM. Regarding `CCN(Cc1cc(F)ccc1-c1cc(CC(=O)O)ccc1OC)C(=O)NCc1ccc(Cl)cc1` [Compound 1-185, {2′-[3-(4-Chloro-benzyl)-1-ethyl-ureidomethyl]-4′-fluoro-6-methoxy-biphenyl-3-yl}-acetic acid], the IC50 was above 1000 nM on human DP1 receptor and below 300 nM on human DP2 receptor (setting [1]). With `CCN(Cc1cc(NS(C)(=O)=O)ccc1-c1cc(CC(=O)O)ccc1OC)C(=O)OCc1ccccc1` [Compound 1-155, {2′-[(Benzyloxycarbonyl-ethyl-amino)-methyl]-4′-methanesulfonylamino-6-methoxy-biphenyl-3-yl}-acetic acid], the figures for the IC50 on human DP1 receptor and on human DP2 receptor (setting [1]) were above 1000 nM and below 300 nM, respectively. Regarding `CCN(Cc1cc(C(F)(F)F)ccc1-c1cc(CC(=O)O)ccc1OC)C(=O)OCc1ccccc1` [Compound 1-28, {2′-[(Benzyloxycarbonyl-ethyl-amino)-methyl]-6-methoxy-4′-trifluoromethyl-biphenyl-3-yl}-acetic acid], the IC50 on human DP1 receptor was above 1000 nM.

As for `COc1ccc(CC(=O)O)cc1-c1ccc(C(F)(F)F)cc1CN(C(=O)OCc1ccccc1)C1CC1` [Compound 1-36, {2′-[(Benzyloxycarbonyl-cyclopropyl-amino)-methyl]-6-methoxy-4′-trifluoromethyl-biphenyl-3-yl}-acetic acid], the IC50 at human DP1 receptor is above 1000 nM. Regarding `CCN(Cc1cc(F)ccc1-c1cc(CC(=O)O)ccc1OC)C(=O)OCc1ccccc1` [Compound 1-183, {2′-[(Benzyloxycarbonyl-ethyl-amino)-methyl]-4′-fluoro-6-methoxy-biphenyl-3-yl}-acetic acid], the results for the IC50 on human DP1 receptor and on human DP2 receptor (setting [1]) were above 1000 nM and below 300 nM, respectively. On to `CCN(Cc1cc(C(F)(F)F)ccc1-c1cc(CC(=O)O)ccc1OC)C(=O)NCc1cc(F)cc(F)c1` [Compound 1-178, {2′-[3-(3,5-Difluoro-benzyl)-1-ethyl-ureidomethyl]-6-methoxy-4′-trifluoromethyl-biphenyl-3-yl}-acetic acid], for which the values for the IC50 on human DP1 receptor and at human DP2 receptor (setting [1]) were above 1000 nM and below 300 nM, respectively. For the compound `CCN(Cc1cc(SC)ccc1-c1cc(CC(=O)O)ccc1OC)C(=O)C1CC1` [Compound 1-241, {2′-[(Cyclopropanecarbonyl-ethyl-amino)-methyl]-6-methoxy-4′-methylsulfanyl-biphenyl-3-yl}-acetic acid], the IC50 on human DP2 receptor (setting [1]) is below 300 nM. As to `CCN(Cc1cc(C(F)(F)F)ccc1-c1cc(CC(=O)O)ccc1OC)C(=O)C1CCC1` [Compound 1-206, {2′-[(Cyclobutanecarbonyl-ethyl-amino)-methyl]-6-methoxy-4′-trifluoromethyl-biphenyl-3-yl}-acetic acid], the IC50 at human DP2 receptor (setting [1]) is below 300 nM. For the compound `CCN(Cc1cc(C(F)(F)F)ccc1-c1cc(CC(=O)O)ccc1OC)C(=O)OCc1cc(Cl)cc(Cl)c1` [Compound 1-38, (2′-{[(3,5-Dichloro-benzyloxycarbonyl)-ethyl-amino]-methyl}-6-methoxy-4′-trifluoromethyl-biphenyl-3-yl)-acetic acid], the IC50 on human DP1 receptor is above 1000 nM. Turning to `CCN(Cc1cc(C(C)(C)O)ccc1-c1cc(CC(=O)O)ccc1OC)C(=O)OCc1ccccc1` [Compound 1-216, [2′-[(Benzyloxycarbonyl-ethyl-amino)-methyl]-4′-(1-hydroxy-1-methyl-ethyl)-6-methoxy-biphenyl-3-yl]-acetic acid], the IC50 on human DP2 receptor (setting [1]) was below 300 nM.

Consider `CCN(Cc1cc(C(=O)O)ccc1-c1cc(CC(=O)O)ccc1OC)C(=O)OCc1ccccc1` [Compound 1-226, 2-[(Benzyloxycarbonyl-ethyl-amino)-methyl]-5′-carboxymethyl-2′-methoxy-biphenyl-4-carboxylic acid], for which the IC50 on human DP2 receptor (setting [1]) was below 300 nM. As for `CCN(Cc1cc(C(F)(F)F)ccc1-c1cccc(CC(=O)O)c1)C(=O)C1CC1` [Compound 1-244, {2′-[(Cyclopropanecarbonyl-ethyl-amino)-methyl]-4′-trifluoromethyl-biphenyl-3-yl}-acetic acid], the IC50 at human DP2 receptor (setting [1]) was below 300 nM. `CCN(Cc1cc(C(F)(F)F)ccc1-c1cc(CC(=O)O)ccc1OC)C(=O)NCc1ccc(O)cc1` [Compound 1-252, {2′-[1-Ethyl-3-(4-hydroxy-benzyl)-ureidomethyl]-6-methoxy-4′-trifluoromethyl-biphenyl-3-yl}-acetic acid]: the IC50 on human DP2 receptor (setting [1]) was below 300 nM. Turning to `CCN(Cc1cc(C(F)(F)F)ccc1-c1cc(CC(=O)O)ccc1OC)C(=O)NCc1cccc(O)c1` [Compound 1-257, {2′-[1-Ethyl-3-(3-hydroxy-benzyl)-ureidomethyl]-6-methoxy-4′-trifluoromethyl-biphenyl-3-yl}-acetic acid], the IC50 at human DP2 receptor (setting [1]) was below 300 nM. As for `CCN(Cc1cc(C(F)(F)F)ccc1-c1cc(CC(=O)O)ccc1OC)C(=O)C(C)(C)C` [Compound 1-245, (2′-{[(2,2-Dimethyl-propionyl)-ethyl-amino]-methyl}-6-methoxy-4′-trifluoromethyl-biphenyl-3-yl)-acetic acid], on human DP2 receptor (setting [1]), the IC50 is above 1000 nM. `CCN(Cc1cc(C(F)(F)F)ccc1-c1cc(CC(=O)O)ccc1OC)C(=O)OCc1ccc(F)cc1` [Compound 1-41, (2′-{[Ethyl-(4-fluoro-benzyloxycarbonyl)-amino]-methyl}-6-methoxy-4′-trifluoromethyl-biphenyl-3-yl)-acetic acid]: the IC50 on human DP1 receptor is above 1000 nM. `CCN(Cc1cc(C(F)(F)F)ccc1-c1cc(CC(=O)O)ccc1OC)C(=O)NCc1ccccc1O` [Compound 1-253, {2′-[1-Ethyl-3-(2-hydroxy-benzyl)-ureidomethyl]-6-methoxy-4′-trifluoromethyl-biphenyl-3-yl}-acetic acid]: the IC50 on human DP2 receptor (setting [1]) is below 300 nM. In the case of `CCN(Cc1cc(Br)ccc1-c1cc(CC(=O)O)ccc1OC)C(=O)C1CC1` [Compound 1-247, {4′-Bromo-2′-[(cyclopropanecarbonyl-ethyl-amino)-methyl]-6-methoxy-biphenyl-3-yl}-acetic acid], the IC50 at human DP2 receptor (setting [1]) was below 300 nM. Consider `COc1ccc(CC(=O)O)cc1-c1ccc(C(F)(F)F)cc1CN(C(=O)OCc1ccccc1)C1CCC1` [Compound 1-34, {2′-[(Benzyloxycarbonyl-cyclobutyl-amino)-methyl]-6-methoxy-4′-trifluoromethyl-biphenyl-3-yl}-acetic acid], for which, on human DP1 receptor, the IC50 was above 1000 nM.
